Laboratory results: patent US12410153B2, “Compounds, compositions and methods” (Avalo Therapeutics, Inc., priority 2014, dated 2025)
Where two headings read alike, the source gives them in different places.

Assay: Repeated once-daily oral dosing with food (Days 1-7) in healthy subjects, PK and PD
Format: in vivo, human
Conditions: for AUC(0-t) / Cmax / Vd/F / Tmax / AUC(0-inf) / half-life: both sexes, human, plasma, oral; for Cmax: read-out: Cmax, Mean (SD); for AUC(0-inf): read-out: AUCinf, Mean (SD)
Procedure: A randomized, double-blind, placebo-controlled, parallel-dose group in-patient study is conducted to investigate the pharmacodynamic (PD) effects of crystalline Form II of Compound (I) in healthy subjects.
The study is designed as a three-part, sequential study. The sequential nature of the study ensures that a range of doses are investigated first in a young, healthy population (Part 1) before proceeding to higher doses in the healthy population and the comparator populations (intermediate age and elderly) (Parts 2 and 3). For the purposes of this study, “young” refers to a subject who is 18 to 45 years of age, “intermediate age” refers to a subject who is 46 to 64 years of age, and “elderly” refers to a subject who is 65 years of age or older.
After a screening period of up to 21 days (Days −23 to −3), 16 healthy, young male and female subjects are randomly assigned to a dose group as shown in Table 9.
Each parallel dose group is balanced for gender (approximately equal number of males and females). The randomized subjects are domiciled from Day −1 through Day 8. On Day −1, the subjects receive placebo tablets in the fed state and undergo ambulatory blood pressure monitoring (ABPM) and safety assessments to establish time-matched baselines. On Days 1-7, the subjects receive the study drug in the fed state and undergo safety, pharmacokinetic (PK) and pharmacodynamics (PD) assessments. On Days 8-11, follow-up PK and safety assessments are performed.
Safety assessments include Clinician-Administered Dissociative States Scale (CADSS), Columbia-Suicide Severity Rating Scale (C-SSRS), concomitant medication, adverse event (AE) and vital sign assessments. In PK assessments, blood samples are taken and analyzed to determine PK parameters such as Cmax, Tmax, AUC0-24, and t1/2. PD assessments include ABPM, plasma brain-derived neurotrophic factor (BDNF) measurements, and Profile of Mood States (POMS) assessments.
After a screening period of up to 21 days (Days −23 to −3), 16 subjects (8 healthy, young male and female subjects, and 8 healthy, intermediate age male and female subjects) are randomly assigned to a dose group as shown in Table 10.
After a screening period of up to 21 days (Days −23 to −3), 16 subjects (8 healthy, young male and female subjects, and 8 healthy, elderly male and female subjects) are randomly assigned to a dose group as shown in Table 11.

[1] = 8 mg, young subjects, 8 mg, Day 7
[2] = 12 mg, intermediate age, 12 mg, Day 7

SMILES: Cc1ccc(COC(=O)N2CC[C@H](CNc3ncccn3)[C@H](F)C2)cc1 [Form II, 4-methylbenzyl (3S, 4R)-3-fluoro-4-[(pyrimidin-2-ylamino)methyl] piperidine-1-carboxylate]
- average 7-day plasma BDNF values compared to placebo (16 and 20 mg): trend for an increase
- apparent oral clearance lower in female vs male subjects (Day 7): approximately 15%
- average Cmax higher in intermediate age and elderly subgroups vs young (Day 7): approximately 30%
- t½ higher in female vs male subjects (Day 7): approximately 16%
- mean plasma concentrations higher in female vs male subjects (Day 7, 2 to 24 hours postdose): approximately 20%
- Cmax and AUC vs dose (Days 1 and 7, 8 to 20 mg): approximately dose-proportional
- average 24 hour and daytime SBP and DBP (all doses compared to placebo, maximal by Day 4): increased
- AUC(0-t) (8 mg, young subjects, 8 mg, Day 1, read-out: AUC0-24, Mean (SD)): 1500 ng·h/mL
- AUC(0-t) (8 mg, young subjects, 8 mg, Day 1, read-out: AUClast, Mean (SD)): 1490 ng·h/mL
- Cmax (8 mg, young subjects, 8 mg, Day 1): 179 ng/mL
- Vd/F (8 mg, young subjects, 8 mg, Day 1, read-out: Vz/F, Mean (SD)): 101 L
- Tmax (8 mg, young subjects, 8 mg, Day 1, read-out: tmax, Mean (SD)): 2.17 h
- Tmax (8 mg, young subjects, 8 mg, Day 1, read-out: tmax, Median): 2 h
- AUC(0-t) (8 mg, young subjects, 8 mg, Day 7, read-out: AUC0-24, Mean (SD)): 2400 ng·h/mL
- AUC(0-inf) [1]: 4110 ng·h/mL
- AUC(0-t) (8 mg, young subjects, 8 mg, Day 7, read-out: AUClast, Mean (SD)): 3770 ng·h/mL
- Cmax [1]: 224 ng/mL
- half-life (8 mg, young subjects, 8 mg, Day 7, read-out: t1/2, Mean (SD) (converted)): 17.2 h
- Tmax (8 mg, young subjects, 8 mg, Day 7, read-out: tmax, Mean (SD)): 2.75 h
- Tmax (8 mg, young subjects, 8 mg, Day 7, read-out: tmax, Median): 3 h
- half-life (12 mg, Day 7, read-out: average t½, range across age groups): 20 to 28 h
- AUC(0-t) (12 mg, elderly, 12 mg, Day 1, read-out: AUC0-24, Mean (SD)): 2130 ng·h/mL
- AUC(0-t) (12 mg, elderly, 12 mg, Day 1, read-out: AUClast, Mean (SD)): 2100 ng·h/mL
- Cmax (12 mg, elderly, 12 mg, Day 1): 229 ng/mL
- Vd/F (12 mg, elderly, 12 mg, Day 1, read-out: Vz/F, Mean (SD)): 164 L
- Tmax (12 mg, elderly, 12 mg, Day 1, read-out: tmax, Mean (SD)): 1.93 h
- Tmax (12 mg, elderly, 12 mg, Day 1, read-out: tmax, Median): 1.75 h
- AUC(0-t) (12 mg, elderly, 12 mg, Day 7, read-out: AUC0-24, Mean (SD)): 4520 ng·h/mL
- AUC(0-inf) (12 mg, elderly, 12 mg, Day 7): 10300 ng·h/mL
- AUC(0-t) (12 mg, elderly, 12 mg, Day 7, read-out: AUClast, Mean (SD)): 9140 ng·h/mL
- Cmax (12 mg, elderly, 12 mg, Day 7): 349 ng/mL
- Vd/F (12 mg, elderly, 12 mg, Day 7, read-out: Vss/F, Mean (SD)): 111 L
- half-life (12 mg, elderly, 12 mg, Day 7, read-out: t1/2, Mean (SD) (converted)): 28.3 h
- Tmax (12 mg, elderly, 12 mg, Day 7, read-out: tmax, Mean (SD)): 2.26 h
- Tmax (12 mg, elderly, 12 mg, Day 7, read-out: tmax, Median): 2 h
- AUC(0-t) (12 mg, intermediate age, 12 mg, Day 1, read-out: AUC0-24, Mean (SD)): 2000 ng·h/mL
- AUC(0-t) (12 mg, intermediate age, 12 mg, Day 1, read-out: AUClast, Mean (SD)): 1980 ng·h/mL
- Cmax (12 mg, intermediate age, 12 mg, Day 1): 257 ng/mL
- Vd/F (12 mg, intermediate age, 12 mg, Day 1, read-out: Vz/F, Mean (SD)): 201 L
- Tmax (12 mg, intermediate age, 12 mg, Day 1, read-out: tmax, Mean (SD)): 2.5 h
- Tmax (12 mg, intermediate age, 12 mg, Day 1, read-out: tmax, Median): 2.5 h
- AUC(0-t) (12 mg, intermediate age, 12 mg, Day 7, read-out: AUC0-24, Mean (SD)): 3840 ng·h/mL
- AUC(0-inf) [2]: 8100 ng·h/mL
- AUC(0-t) (12 mg, intermediate age, 12 mg, Day 7, read-out: AUClast, Mean (SD)): 7470 ng·h/mL
- Cmax [2]: 360 ng/mL
- Vd/F (12 mg, intermediate age, 12 mg, Day 7, read-out: Vss/F, Mean (SD)): 121 L
- half-life (12 mg, intermediate age, 12 mg, Day 7, read-out: t1/2, Mean (SD) (converted)): 26.1 h
- Tmax (12 mg, intermediate age, 12 mg, Day 7, read-out: tmax, Mean (SD)): 1.83 h
- Tmax (12 mg, intermediate age, 12 mg, Day 7, read-out: tmax, Median): 1.5 h
